Test results from patent publication US20190021323A1, “Use of Gibberellin A5 to Increase the Yield and Quality of Wine Grapes” (UTI Limited Partnership, priority 2016, published 2019).

Key:
[1] = test system: Vitis vinifera L. cv. Malbec; assay: Field trial 2012-2013: GA5 bunch dip once at 30 DBV on cv. Malbec grapevines (Example 2); format: in vivo
Protocol: (§1) A second trial was done in the same vineyard used for the trial outlined in Example 1. Grapevines were selected from a clone of Vitis vinifera L. cv. Malbec, planted in 1997 on their own roots in a commercial vineyard located in Gualtallary, Mendoza, Argentina (1450 m above sea level, 69°15′37″ W and 33°23′51″ S). The vines were trained on a vertical trellis system arranged in north-south oriented rows spaced 2 m apart, with 1.20 m between plants within the row. The grapevines were maintained with no soil water restriction during the whole experiment by the use of a drip irrigation system (4 liters per plant per night), and the fruiting vines were protected with anti-hail nets (black polyethylene).
The treatments were applied by submerging all of the fruit bunches on each vine in a treatment group in the selected aqueous solution (fruit bunches from control vines were submerged in water). All of the treatment solutions, including the water controls, contained 0.1% v/v of the surfactant TRITON®-X and a minimal amount of 95% EtOH to dissolve the GA5 powders (the control treatments also included a minimal amount of 95% EtOH). All treatments were applied once at 30 DBV (i.e. 61 DAF). Each berry bunch on a test vine was submerged in 750 mL of the selected treatment solution for 15 sec during a late afternoon time period.
A randomized complete block design with 5 treatments and 5 blocks was used during the 2012-2013 production season. The experimental unit consisted of one plant selected as being “typical” among 6 consecutive plants in a selected row. Each row was a replicate, i.e., a “block”. There were thus 5 experimental units (plants) utilized for each treatment, one for each row (block). All the grapevines in the 5 replicate rows were pruned to 8 “fruiting” shoots and the crop load on each shoot was thinned to two bunches per shoot at 40 days after flowering (DAF). One shoot per experimental unit was selected, marked and used for the non-destructive measurements (shoot length, number of leaves and leaf area), while the rest of the shoots were used for berry sampling.
(§2) Shoot length, number of leaves and midrib (main vein) length of all leaves were measured at: (i) 30 DBV just before application of the first set of treatments, and (ii) at harvest. At harvest, all of the leaves from 10 randomly selected shoots were collected in nylon bags, kept on ice to prevent dehydration, and were taken to the laboratory where the length of the leaf midribs, weights of separated leaves, and the weights of 1-cm^2 leaf discs were determined. Then, the leaf areas (LA) were calculated and, based on the weights, a linear regression model between the LA and the midrib length was generated. The correlation coefficient (r^2) was 0.91 and thus the model was used to transform the non-destructive measurements of midrib length into LA values.
(§3) At harvest, the two selected and marked bunches from one fruiting shoot per experimental unit, i.e. not used for berry sampling, were collected in nylon bags and weighed. Then the number of berries per bunch was counted.

[2] = test system: Vitis vinifera L. cv. Malbec; assay: Field trial 2014-2015: GA5, GA4, GA4/7 bunch dip or spray on cv. Malbec grapevines (Example 3); format: in vivo
Protocol: as §1, with “A third” for “A second”, “the trials” for “the trial”, “in Examples 1 and 2.” for “in Example 1.”
The effects of two concentrations (i.e., 10 mg/L and 50 mg/L) of three different gibberellin compositions (GA5, GA4, and a mixture of GA4 and GA7 referred to as “GA4/7”) on berry and bunch development and quality in treated cv. […] All of the treatment solutions, including the water controls, contained 0.1% v/v of the surfactant TRITON®-X and a minimal amount of 96% EtOH to dissolve the various GA5, GA4, and GA4/7 powders (the control treatments also included a minimal amount of 96% EtOH).
The effects of GA applications were assessed at two stages of berry development. The first group of test plants was treated at 60 DBV (i.e. 31 DAF) while a second group of test plants was treated at 30 DBV (i.e. 61 DAF). At each application stage, the groups of test plants receiving selected treatments were each divided into two subsets. The developing berry bunches on the first subset of plants for a selected treatment were treated by submerging into a 750-mL volume of the test solution for a period of 15 sec during late afternoon. The second subset of plants was treated with a spray application of 150 mL of test solution per each test plant. The spray applications were made in late afternoon.
For each of the two application stages, a randomized complete block design with 14 treatments and 5 blocks was used for a […]. The experimental unit consisted of one plant selected as being “typical” among 6 consecutive plants in a selected row. Each row was a replicate, i.e., a “block”. There were thus 40 experimental units (plants) utilized for each growth regulator. All the grapevines in the 5 replicate rows were pruned to 8 “fruiting” shoots and the crop load on each shoot was thinned to two bunches per shoot at the beginning of the experiment (31 DAF or 60 DBV). One shoot per experimental unit was selected, marked and used for the non-destructive measurements (shoot length, number of leaves and leaf area), while the rest of the shoots were used for berry sampling.
as §3
Samples of 25 berries per experimental unit were randomly collected in nylon bags (5 berries from each bunch; two top berries, two middle berries, one bottom berry; for each test vine, berries were collected from 5 bunches exposed to the west). These berry samples were taken at 132 DAF (132 DAF being the time of ripe berry harvest). The berries were kept on dry ice to prevent enzyme activity and dehydration and were taken quickly to the laboratory where berry fresh weights (FW) were determined before the berries were stored at −20° C. Then, 15 berries per experimental unit were defrosted at ambient room temperature after which, the skins were separated from fruit pulp and seeds by hand. The fruit pulp was collected in nylon bags, crushed by hand pressing and the relative concentration of sugars (°Brix) was measured in the pulp juice with a PAL-1 digital hand-held refractometer (Atago Co., Ltd., Tokyo, Japan). The °Brix was multiplied by the berries' FW to calculate sugar on a per berry basis (absolute amounts). […]

[3] = test system: Vitis vinifera L. cv. Malbec; assay: Field trial 2010-2011: GA5 bunch dip on cv. Malbec grapevines (Example 1); format: in vivo
Protocol: as §1, with “Grapevines” for “A second trial was done in the same vineyard used for the trial outlined in Example 1. Grapevines”
The treatments were applied by submerging all of the fruit bunches on each vine in a treatment group in the selected aqueous solution (fruit bunches from control vines were submerged in water). All of the treatment solutions, including the water controls, contained 0.1% v/v of the surfactant TRITON®-X (TRITON is a registered trademark of the Dow Chemical Co., Indianapolis, Ind., USA) and a minimal amount of 95% EtOH to dissolve the GA5 powders (the control treatments also included a minimal amount of 95% EtOH). The treatments were applied three times; 56 days after flowering (DAF; i.e., 35 days before veraison—“DBV”), 70 DAF (i.e., 21 DBV), and 91 DAF (i.e., 0 DBV). The 91 DAF treatment time corresponded to veraison. Each berry bunch on a test vine was submerged in 750 mL of the selected treatment solution for 15 sec during a late afternoon time period.
A randomized complete block design with 4 treatments and 5 blocks was used during the 2010-2011 production season. The experimental unit consisted of one plant selected as being “typical” among 6 consecutive plants in a selected row. Each row was a replicate, i.e., a “block”. There were thus 5 experimental units (plants) utilized for each treatment, one for each row (block). All the grapevines in the 5 replicate rows were pruned to 8 “fruiting” shoots and the crop load on each shoot was thinned to two bunches per shoot at 40 days after flowering (DAF). One shoot per experimental unit was selected, marked and used for the non-destructive measurements (shoot length, number of leaves and leaf area), while the rest of the shoots were used for berry sampling.
as §2, with “56 DAF/35” for “30”, “132 DAF (harvest date).” for “at harvest.”, “the 132 DAF,” for “harvest,”
At 132 DAF, the two selected and marked bunches from one fruiting shoot per experimental unit, i.e. not used for berry sampling, were collected in nylon bags and weighed. Then the number of berries per bunch was counted.
Finally, in the next year's flowering and fruiting season (early 2012) the number of fruit clusters bunches per shoot were counted in order to assess GA5 treatment effects on return bloom.

[4] = test system: Thompson seedless table grape vines; conditions: applied about three weeks before bloom; cited from earlier work
[5] = 10 and 50 mg/L, submersion and spraying, 60 DBV and 30 DBV, vs controls

In the case of `C=C1C[C@]23C[C@@]1(O)CC[C@H]2[C@@]12CC=C[C@@](C)(C(=O)O1)[C@H]2[C@@H]3C(=O)O` [GA5, gibberellin A5], the “Shoot length, significance vs Control” value ([1]; 5 mg/L, dip once at 30 DBV, FIG. 3A) is reported as “statistically significantly different from the Control”, the “Per bunch fresh weight” value ([1]; 20 mg/L, dip once at 30 DBV, FIG. 4A) is reported as “significantly increased” and the “Number of berries per bunch” value ([1]; 20 mg/L, dip once at 30 DBV, FIG. 4B) is reported as “significantly increased”. The “Grape yield per plant and per hectare” value ([1]; 20 mg/L, inferred from bunch weight) was “appreciably increased”, the Shoot length ([1]; all four treatments 5, 20, 50, 250 mg/L, dip once at 30 DBV, at harvest, FIG. 3A) was “decreased” and the “Leaf surface area per shoot” value ([1]; all four treatments 5, 20, 50, 250 mg/L, dip once at 30 DBV, at harvest, FIG. 3B) was “decreased”. The “Anthocyanin content per berry skin” value [2, 5] was “tended to be generally increased”, the “Average per bunch fresh weight” value [2, 5] was “increased” and the “Dry weight per individual berry” value [2, 5] was “generally increased”. For the same molecule, the “Fresh weight per individual berry” value [2, 5] was “generally increased”, the “Number of berries per bunch” value [2, 5] was “increased” and the “Sugar content per berry” value [2, 5] was “(non-significant) increased”. The “Total polyphenol index (TPI) per berry skin” value [2, 5] was “tended to be generally increased”, the “Vegetative growth of shoots (shoot length, number of leaves)” value ([3]; 5, 50, 250 mg/L, bunch dip at 35, 21 and 0 DBV, post-56 DAF to harvest, vs controls, FIGS. 1A-1C) was “not significantly affected” and the “Return bloom: number of fruit clusters (bunches) per shoot in the following season” value ([3]; assessed early 2012, FIG. 2C) was “no significant effects”. For the same molecule, the “Per bunch fresh weight of grape berry bunches” value ([3]; lower GA5 application rates, dip at 56, 70 and 91 DAF, harvested at 132 DAF, FIG. 2A) was “significant increases”, the “Number of berries per bunch” value ([3]; lower GA5 application rates, dip at 56, 70 and 91 DAF, harvested at 132 DAF, FIG. 2B) was “significant increases” and the “Leaf surface area per shoot” value ([3]; lower concentrations 5 mg/L, 50 mg/L, bunch dip at 35, 21 and 0 DBV, FIG. 1C) was “tended to reduce”.

In the case of `C=C1C[C@]23C[C@H]1CCC2[C@@]12CC[C@H](O)C(C)(C(=O)O1)C2[C@@H]3C(=O)O` (stereo partly drawn) [GA4, gibberellin A4], the “Harvest yield (average per bunch fresh weight), significance vs controls” value ([2]; 8 rate/method/stage combinations, FIG. 8A) is reported as “significantly different from the controls in 5 out of 8 rates”, the “Anthocyanin content per berry skin” value [2, 5] is reported as “appreciable increases” and the “Average per bunch fresh weight” value [2, 5] is reported as “increased”. For the same molecule, the “Dry weight per individual berry” value [2, 5] was “tended to be generally increased”, the “Number of berries per bunch” value [2, 5] was “increased” and the “Sugar content per berry” value [2, 5] was “tended to result in increased”. The “Total polyphenol index (TPI) per berry skin” value [2, 5] was “appreciable increases”.

In the case of `C=C1C[C@]23C[C@@]1(O)CC[C@H]2[C@@]12C=C[C@H](O)[C@@](C)(C(=O)O1)[C@H]2[C@@H]3C(=O)O` [GA3, gibberellic acid], the Berry cluster compactness [4] is given as “reduce berry cluster compactness” and the Fruit set [4] is given as “reduce fruit set”.
